The source of these data is ChEMBL document CHEMBL1130692, “Novel B-ring modified combretastatin analogues: syntheses and antineoplastic activity” (Bioorg Med Chem Lett, 1998).

The test system of one test is Colon 26. The test can be described thus: Cytotoxic activity was determined against Colon 26 adenocarcinoma cells. The following applies: Mus musculus. It counts as functional, cell-based.
The species named for another test is Bos taurus. The test is described as follows: Inhibitory activity was determined against tubulin polymerization of bovine brain tubulin. It counts as functional.

pIC50: −log10 of the molar value.

One may read the pIC50 as −log10 of the IC50, conventionally taken in molar units. As to `COc1cc(/C=C\c2cc[n+](C)cc2)cc(OC)c1OC`, the pIC50 in the test on Colon 26 is less than 5.52.
For the compound `COc1cc(/C=C\c2ccc(=O)n(C)c2)cc(OC)c1OC`, the values for the pIC50 in the test on Colon 26 and in the test listed under Bos taurus were less than 5.52 and less than 5.00, respectively.
`COc1ccc(/C=C\c2cc(OC)c(OC)c(OC)c2)nn1`: the negative logarithm of the IC50 (pIC50) was less than 5.52 in the test on Colon 26 and less than 5.00 in the test listed under Bos taurus.
In the same order, the values of `COc1cc(/C=C\c2ccn(C)c(=O)c2)cc(OC)c1OC` are 7.72 and 5.70.
In the test filed under Bos taurus, `COc1ccc(/C=C\c2cc(OC)c(OC)c(OC)c2)cc1N` gave a negative logarithm of the IC50 (pIC50) of 6.00.
For the compound `COc1cnc(/C=C\c2cc(OC)c(OC)c(OC)c2)nc1`, the negative-log IC50 (pIC50) with Colon 26 was less than 5.52; in the test listed under Bos taurus, less than 5.00.
In the same order, the values of `COc1cnc(/C=C\c2cc(OC)c(OC)c(OC)c2)cn1` are 6.06 and 5.05.
For the compound `COc1cc(/C=C\c2cc[n+]([O-])cc2)cc(OC)c1OC`, the pIC50 in the test with Colon 26 is less than 5.52; in the test filed under Bos taurus it was less than 5.00.
For `COc1ncc(/C=C\c2cc(OC)c(OC)c(OC)c2)cn1`, in that order: 6.56 and 5.52.
In the same order, the values of `COc1ccc(/C=C\c2cc(OC)c(OC)c(OC)c2)nc1` are 6.74 and 5.52.
In the same order, the values of `COc1ccc(/C=C\c2cc(OC)c(OC)c(OC)c2)cc1O` [COMBRETASTATIN A4] are 8.06 and 5.70.
Turning to `COc1ccc(/C=C\c2cc(OC)c(OC)c(OC)c2)cn1`, the pIC50 was 7.53 in the test with Colon 26 and 5.70 in the test filed under Bos taurus.
